Literature values in US20080146664A1, “Method for treating diseases caused by accumulation of body fat” (priority 2006, published 2008).

Conditions: addition of conjugated linoleic acid

## conjugated linoleic acid
  lipodystrophy-like symptoms (fatty liver, splenic hypertrophy, disappearance of brown fat): generated
  pattern of adipose tissue decrease: partial decrease in adipose tissue
  significant decrease in the parametrial adipose tissue: not observed
  significant decrease in the weight of the liver: not observed
